Test results reported in patent publication US8598365B2, “Herbicides” (Syngenta Limited, priority 2007, dated 2013).

tested on: Alopecurus myosuroides (ALOMY); test: Example B pre-emergence herbicidal activity; type: in vivo; details: 312 h, rate 250 g/ha, evaluated after 13 days, read-out: Pre-Emergence Activity ALOMY (100=total damage to plant; 0=no damage to plant)
Protocol: (§1) Seeds of a variety of test species were sown in standard soil in pots. After cultivation for one day (pre-emergence) or after 8 days cultivation (post-emergence) under controlled conditions in a glasshouse (at 24/16° C., day/night; 14 hours light; 65% humidity), the plants were sprayed with an aqueous spray solution derived from the formulation of the technical active ingredient in acetone/water (50:50) solution containing 0.5% Tween 20 (polyoxyethelyene sorbitan monolaurate, CAS RN 9005-64-5).
(§2) The test plants were then grown in a glasshouse under controlled conditions in a glasshouse (at 24/16° C., day/night; 14 hours light; 65% humidity) and watered twice daily. After 13 days for pre and post-emergence, the test was evaluated (100=total damage to plant; 0=no damage to plant).
(§3) Alopecurus myosuroides (ALOMY), Avena fatua (AVEFA), Setaria faberi (SETFA), Echinochloa crus-galli (ECHCG), Solanum nigrum (SOLNI) and Amaranthus retoflexus (AMARE)

Row | Compound | pest or weed control at 250 g/ha [%]
1 | CC(C)(C)C(=O)OC1=C(c2csc(-c3ccc(Cl)cc3)n2)C(=O)[C@@H]2CC[C@H]1C2 [Compound P22] | 0
2 | O=C1C(c2cncc(Cl)c2)C(=O)[C@H]2CC[C@@H]1C2 (stereo partly shown) [Compound T85] | 0
3 | Cc1cc(-c2nc(C3C(=O)[C@@H]4CC[C@@H](C4)C3=O)c(C)s2)ccc1Cl (stereo partly shown) [Compound T4] | 50

same assay, conditions: 312 h, rate 1000 g/ha, evaluated after 13 days, read-out: Pre-Emergence Activity ALOMY (100=total damage to plant; 0=no damage to plant)

Row | Compound | pest or weed control at 1000 g/ha [%]
4 | Cc1cc(Cl)ccc1-c1nc(C2C(=O)[C@@H]3CC[C@@H](C3)C2=O)c(C)s1 (stereo partly shown) [Compound T14] | 30

tested on: Amaranthus retoflexus (AMARE); test: Example B pre-emergence herbicidal activity; type: in vivo; details: Amaranthus retroflexus, 312 h, rate 250 g/ha, evaluated after 13 days, read-out: Pre-Emergence Activity AMARE (100=total damage to plant; 0=no damage to plant)
Protocol: as §1, §2, §3

Row | Compound | pest or weed control at 250 g/ha [%]
5 | CC(C)(C)C(=O)OC1=C(c2csc(-c3ccc(Cl)cc3)n2)C(=O)[C@@H]2CC[C@H]1C2 [Compound P22] | 0
6 | O=C1C(c2cncc(Cl)c2)C(=O)[C@H]2CC[C@@H]1C2 (stereo partly shown) [Compound T85] | 30
7 | Cc1cc(-c2nc(C3C(=O)[C@@H]4CC[C@@H](C4)C3=O)c(C)s2)ccc1Cl (stereo partly shown) [Compound T4] | 0

same assay, conditions: Amaranthus retroflexus, 312 h, rate 1000 g/ha, evaluated after 13 days, read-out: Pre-Emergence Activity AMARE (100=total damage to plant; 0=no damage to plant)

Row | Compound | pest or weed control at 1000 g/ha [%]
8 | Cc1cc(Cl)ccc1-c1nc(C2C(=O)[C@@H]3CC[C@@H](C3)C2=O)c(C)s1 (stereo partly shown) [Compound T14] | 0

tested on: Avena fatua (AVEFA); test: Example B pre-emergence herbicidal activity; type: in vivo; details: 312 h, rate 250 g/ha, evaluated after 13 days, read-out: Pre-Emergence Activity AVEFA (100=total damage to plant; 0=no damage to plant)
Protocol: as §1, §2, §3

Row | Compound | pest or weed control at 250 g/ha [%]
9 | CC(C)(C)C(=O)OC1=C(c2csc(-c3ccc(Cl)cc3)n2)C(=O)[C@@H]2CC[C@H]1C2 [Compound P22] | 0
10 | O=C1C(c2cncc(Cl)c2)C(=O)[C@H]2CC[C@@H]1C2 (stereo partly shown) [Compound T85] | 0
11 | Cc1cc(-c2nc(C3C(=O)[C@@H]4CC[C@@H](C4)C3=O)c(C)s2)ccc1Cl (stereo partly shown) [Compound T4] | 0

same assay, conditions: 312 h, rate 1000 g/ha, evaluated after 13 days, read-out: Pre-Emergence Activity AVEFA (100=total damage to plant; 0=no damage to plant)

Row | Compound | pest or weed control at 1000 g/ha [%]
12 | Cc1cc(Cl)ccc1-c1nc(C2C(=O)[C@@H]3CC[C@@H](C3)C2=O)c(C)s1 (stereo partly shown) [Compound T14] | 80

tested on: Echinochloa crus-galli (ECHCG); test: Example B pre-emergence herbicidal activity; type: in vivo; details: 312 h, rate 250 g/ha, evaluated after 13 days, read-out: Pre-Emergence Activity ECHCG (100=total damage to plant; 0=no damage to plant)
Protocol: as §1, §2, §3

Row | Compound | pest or weed control at 250 g/ha [%]
13 | CC(C)(C)C(=O)OC1=C(c2csc(-c3ccc(Cl)cc3)n2)C(=O)[C@@H]2CC[C@H]1C2 [Compound P22] | 0
14 | O=C1C(c2cncc(Cl)c2)C(=O)[C@H]2CC[C@@H]1C2 (stereo partly shown) [Compound T85] | 0
15 | Cc1cc(-c2nc(C3C(=O)[C@@H]4CC[C@@H](C4)C3=O)c(C)s2)ccc1Cl (stereo partly shown) [Compound T4] | 60

same assay, conditions: 312 h, rate 1000 g/ha, evaluated after 13 days, read-out: Pre-Emergence Activity ECHCG (100=total damage to plant; 0=no damage to plant)

Row | Compound | pest or weed control at 1000 g/ha [%]
16 | Cc1cc(Cl)ccc1-c1nc(C2C(=O)[C@@H]3CC[C@@H](C3)C2=O)c(C)s1 (stereo partly shown) [Compound T14] | 90

tested on: Setaria faberi (SETFA); test: Example B pre-emergence herbicidal activity; type: in vivo; details: 312 h, rate 250 g/ha, evaluated after 13 days, read-out: Pre-Emergence Activity SETFA (100=total damage to plant; 0=no damage to plant)
Protocol: as §1, §2, §3

Row | Compound | pest or weed control at 250 g/ha [%]
17 | CC(C)(C)C(=O)OC1=C(c2csc(-c3ccc(Cl)cc3)n2)C(=O)[C@@H]2CC[C@H]1C2 [Compound P22] | 30
18 | O=C1C(c2cncc(Cl)c2)C(=O)[C@H]2CC[C@@H]1C2 (stereo partly shown) [Compound T85] | 0
19 | Cc1cc(-c2nc(C3C(=O)[C@@H]4CC[C@@H](C4)C3=O)c(C)s2)ccc1Cl (stereo partly shown) [Compound T4] | 30

same assay, conditions: 312 h, rate 1000 g/ha, evaluated after 13 days, read-out: Pre-Emergence Activity SETFA (100=total damage to plant; 0=no damage to plant)

Row | Compound | pest or weed control at 1000 g/ha [%]
20 | Cc1cc(Cl)ccc1-c1nc(C2C(=O)[C@@H]3CC[C@@H](C3)C2=O)c(C)s1 (stereo partly shown) [Compound T14] | 70

tested on: Alopecurus myosuroides (ALOMY); test: Example B post-emergence herbicidal activity; type: in vivo; details: 312 h, rate 250 g/ha, evaluated after 13 days, read-out: Post-emergence activity ALOMY (100=total damage to plant; 0=no damage to plant)
Protocol: as §1, §2, §3

Row | Compound | pest or weed control at 250 g/ha [%]
21 | CC(C)(C)C(=O)OC1=C(c2csc(-c3ccc(Cl)cc3)n2)C(=O)[C@@H]2CC[C@H]1C2 [Compound P22] | 0
22 | Cc1cc(-c2nc(C3C(=O)[C@@H]4CC[C@@H](C4)C3=O)c(C)s2)ccc1Cl (stereo partly shown) [Compound T4] | 60

same assay, conditions: 312 h, rate 1000 g/ha, evaluated after 13 days, read-out: Post-emergence activity ALOMY (100=total damage to plant; 0=no damage to plant)

Row | Compound | pest or weed control at 1000 g/ha [%]
23 | Cc1cc(Cl)ccc1-c1nc(C2C(=O)[C@@H]3CC[C@@H](C3)C2=O)c(C)s1 (stereo partly shown) [Compound T14] | 90

tested on: Amaranthus retoflexus (AMARE); test: Example B post-emergence herbicidal activity; type: in vivo; details: Amaranthus retroflexus, 312 h, rate 250 g/ha, evaluated after 13 days, read-out: Post-emergence activity AMARE (100=total damage to plant; 0=no damage to plant)
Protocol: as §1, §2, §3

Row | Compound | pest or weed control at 250 g/ha [%]
24 | CC(C)(C)C(=O)OC1=C(c2csc(-c3ccc(Cl)cc3)n2)C(=O)[C@@H]2CC[C@H]1C2 [Compound P22] | 0
25 | Cc1cc(-c2nc(C3C(=O)[C@@H]4CC[C@@H](C4)C3=O)c(C)s2)ccc1Cl (stereo partly shown) [Compound T4] | 0

same assay, conditions: Amaranthus retroflexus, 312 h, rate 1000 g/ha, evaluated after 13 days, read-out: Post-emergence activity AMARE (100=total damage to plant; 0=no damage to plant)

Row | Compound | pest or weed control at 1000 g/ha [%]
26 | Cc1cc(Cl)ccc1-c1nc(C2C(=O)[C@@H]3CC[C@@H](C3)C2=O)c(C)s1 (stereo partly shown) [Compound T14] | 20

tested on: Avena fatua (AVEFA); test: Example B post-emergence herbicidal activity; type: in vivo; details: 312 h, rate 250 g/ha, evaluated after 13 days, read-out: Post-emergence activity AVEFA (100=total damage to plant; 0=no damage to plant)
Protocol: as §1, §2, §3

Row | Compound | pest or weed control at 250 g/ha [%]
27 | CC(C)(C)C(=O)OC1=C(c2csc(-c3ccc(Cl)cc3)n2)C(=O)[C@@H]2CC[C@H]1C2 [Compound P22] | 0

same assay, conditions: 312 h, rate 1000 g/ha, evaluated after 13 days, read-out: Post-emergence activity AVEFA (100=total damage to plant; 0=no damage to plant)

Row | Compound | pest or weed control at 1000 g/ha [%]
28 | Cc1cc(Cl)ccc1-c1nc(C2C(=O)[C@@H]3CC[C@@H](C3)C2=O)c(C)s1 (stereo partly shown) [Compound T14] | 90

tested on: Echinochloa crus-galli (ECHCG); test: Example B post-emergence herbicidal activity; type: in vivo; details: 312 h, rate 250 g/ha, evaluated after 13 days, read-out: Post-emergence activity ECHCG (100=total damage to plant; 0=no damage to plant)
Protocol: as §1, §2, §3

Row | Compound | pest or weed control at 250 g/ha [%]
29 | CC(C)(C)C(=O)OC1=C(c2csc(-c3ccc(Cl)cc3)n2)C(=O)[C@@H]2CC[C@H]1C2 [Compound P22] | 20
30 | Cc1cc(-c2nc(C3C(=O)[C@@H]4CC[C@@H](C4)C3=O)c(C)s2)ccc1Cl (stereo partly shown) [Compound T4] | 100

same assay, conditions: 312 h, rate 1000 g/ha, evaluated after 13 days, read-out: Post-emergence activity ECHCG (100=total damage to plant; 0=no damage to plant)

Row | Compound | pest or weed control at 1000 g/ha [%]
31 | Cc1cc(Cl)ccc1-c1nc(C2C(=O)[C@@H]3CC[C@@H](C3)C2=O)c(C)s1 (stereo partly shown) [Compound T14] | 100

tested on: Setaria faberi (SETFA); test: Example B post-emergence herbicidal activity; type: in vivo; details: 312 h, rate 250 g/ha, evaluated after 13 days, read-out: Post-emergence activity SETFA (100=total damage to plant; 0=no damage to plant)
Protocol: as §1, §2, §3

Row | Compound | pest or weed control at 250 g/ha [%]
32 | CC(C)(C)C(=O)OC1=C(c2csc(-c3ccc(Cl)cc3)n2)C(=O)[C@@H]2CC[C@H]1C2 [Compound P22] | 70
33 | Cc1cc(-c2nc(C3C(=O)[C@@H]4CC[C@@H](C4)C3=O)c(C)s2)ccc1Cl (stereo partly shown) [Compound T4] | 80

same assay, conditions: 312 h, rate 1000 g/ha, evaluated after 13 days, read-out: Post-emergence activity SETFA (100=total damage to plant; 0=no damage to plant)

Row | Compound | pest or weed control at 1000 g/ha [%]
34 | Cc1cc(Cl)ccc1-c1nc(C2C(=O)[C@@H]3CC[C@@H](C3)C2=O)c(C)s1 (stereo partly shown) [Compound T14] | 100
